# “And” between values parts separate entries of the source, which are not always exact repeats. Identical values can stand only once.
# System: DMS 114 tumor spheroids, viability % test/control
# Experiment: Anticancer human tumor DMS 114 cell line growth inhibition;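 further: spheroids exposed to compounds for 7 days before read-out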;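 on viability, T/C: luminescence used as a proxy for viable cells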
# Conditions: spheroids with HUVEC and MSC; for viability, T/C: stronger effect = lower value
# How it was run: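 Complex spheroids of malignant cells with endothelial cells and mesenchymal stem cells; agents alone or combined, from near clinical Cmax (or 10 microM if unknown) down in half-log steps, 0.25% DMSO final.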
# [1] = curve of first compound, second compound 1 µM
# [2] = curve of first compound, second compound 3.16 µM
# [3] = curve of first compound, second compound 10 µM
# [4] = curve of first compound, second compound 31.6 µM
# [5] = curve of first compound, second compound 100 µM
# [6] = second compound 1 µM, first compound 0.0316 µM
# [7] = second compound 1 µM, first compound 0.1 µM
# [8] = second compound 1 µM, first compound 0.316 µM
# [9] = second compound 1 µM, first compound 1 µM
# [10] = second compound 1 µM, first compound 3.16 µM
# [11] = second compound 1 µM, first compound 10 µM
# [12] = second compound 3.16 µM, first compound 0.0316 µM
# [13] = second compound 3.16 µM, first compound 0.1 µM
# [14] = second compound 3.16 µM, first compound 0.316 µM
# [15] = second compound 3.16 µM, first compound 1 µM
# [16] = second compound 3.16 µM, first compound 3.16 µM
# [17] = second compound 3.16 µM, first compound 10 µM
# [18] = second compound 10 µM, first compound 0.0316 µM
# [19] = second compound 10 µM, first compound 0.1 µM
# [20] = second compound 10 µM, first compound 0.316 µM
# [21] = second compound 10 µM, first compound 1 µM
# [22] = second compound 10 µM, first compound 3.16 µM
# [23] = second compound 10 µM, first compound 10 µM
# [24] = second compound 31.6 µM, first compound 0.0316 µM
# [25] = second compound 31.6 µM, first compound 0.1 µM
# [26] = second compound 31.6 µM, first compound 0.316 µM
# [27] = second compound 31.6 µM, first compound 1 µM
# [28] = second compound 31.6 µM, first compound 3.16 µM
# [29] = second compound 31.6 µM, first compound 10 µM
# [30] = second compound 100 µM, first compound 0.0316 µM
# [31] = second compound 100 µM, first compound 0.1 µM
# [32] = second compound 100 µM, first compound 0.316 µM
# [33] = second compound 100 µM, first compound 1 µM
# [34] = second compound 100 µM, first compound 3.16 µM
# [35] = second compound 100 µM, first compound 10 µM
smiles,measurement,setting,value
CC(C)n1c(=O)n(C)c2cnc3cc(F)c(-c4ccc(OCCCN5CCCCC5)nc4)cc3c21 + Cn1nnc2c(C(N)=O)ncn2c1=O,IC50,[1],6.43 µM
same,IC50,[2],7.31 µM
same,IC50,[3],6.55 µM
same,IC50,[4],6.08 µM
same,IC50,[5],4.32 µM
same,"viability, T/C",[6],95.4%
same,"viability, T/C",[7],100%
same,"viability, T/C",[8],101%
same,"viability, T/C",[9],98.9%
same,"viability, T/C",[10],75.4%
same,"viability, T/C",[11],34.2%
same,"viability, T/C",[12],104%
same,"viability, T/C",[13],105%
same,"viability, T/C",[14],104%
same,"viability, T/C",[15],106%
same,"viability, T/C",[16],94.8%
same,"viability, T/C",[17],32.9%
same,"viability, T/C",[18],103%
same,"viability, T/C",[19],111%
same,"viability, T/C",[20],105%
same,"viability, T/C",[21],93.5%
same,"viability, T/C",[22],79%
same,"viability, T/C",[23],33.4%
same,"viability, T/C",[24],99.6%
same,"viability, T/C",[25],96%
same,"viability, T/C",[26],101%
same,"viability, T/C",[27],95.3%
same,"viability, T/C",[28],71.2%
same,"viability, T/C",[29],33.8%
same,"viability, T/C",[30],85.8%
same,"viability, T/C",[31],81.6%
same,"viability, T/C",[32],82.9%
same,"viability, T/C",[33],84.8%
same,"viability, T/C",[34],58.8%
same,"viability, T/C",[35],26.5%
Cc1cc(C)c(CNC(=O)c2cc(-c3ccc(CN4CCOCC4)cc3)cc3c2cnn3C2CCCC2)c(=O)[nH]1,"viability, T/C",compound 0.0316 µM,99.2% and 94.7% and 96.4%
same,"viability, T/C",compound 0.1 µM,104% and 96.8% and 102%
same,"viability, T/C",compound 0.316 µM,103% and 113% and 108%
same,"viability, T/C",compound 1 µM,116% and 115% (2×)
same,"viability, T/C",compound 3.16 µM,106% and 110% and 103%
same,"viability, T/C",compound 10 µM,62.3% and 78% and 72.8%
same,IC50,curve of compound,> 10 µM
Cc1cc(C)c(CNC(=O)c2cc(-c3ccc(CN4CCOCC4)cc3)cc3c2cnn3C2CCCC2)c(=O)[nH]1 + COc1cc2c(cc1O)CCNC21CSC2c3c(OC(C)=O)c(C)c4c(c3C(COC1=O)N1C(O)C3Cc5cc(C)c(OC)c(O)c5C(C21)N3C)OCO4,IC50,"curve of first compound, second compound 30 pM",> 10 µM
same,IC50,"curve of first compound, second compound 94.9 pM",> 10 µM
same,IC50,"curve of first compound, second compound 0.0003 µM",< 0.0316 µM
same,IC50,"curve of first compound, second compound 0.000949 µM",< 0.0316 µM
same,IC50,"curve of first compound, second compound 0.003 µM",< 0.0316 µM
same,"viability, T/C","second compound 30 pM, first compound 0.0316 µM",112%
same,"viability, T/C","second compound 30 pM, first compound 0.1 µM",100%
same,"viability, T/C","second compound 30 pM, first compound 0.316 µM",104%
same,"viability, T/C","second compound 30 pM, first compound 1 µM",113%
same,"viability, T/C","second compound 30 pM, first compound 3.16 µM",115%
same,"viability, T/C","second compound 30 pM, first compound 10 µM",73.2%
same,"viability, T/C","second compound 94.9 pM, first compound 0.0316 µM",113%
same,"viability, T/C","second compound 94.9 pM, first compound 0.1 µM",108%
same,"viability, T/C","second compound 94.9 pM, first compound 0.316 µM",112%
same,"viability, T/C","second compound 94.9 pM, first compound 1 µM",102%
same,"viability, T/C","second compound 94.9 pM, first compound 3.16 µM",98.6%
same,"viability, T/C","second compound 94.9 pM, first compound 10 µM",52.1%
same,"viability, T/C","second compound 0.0003 µM, first compound 0.0316 µM",40.1%
same,"viability, T/C","second compound 0.0003 µM, first compound 0.1 µM",35.8%
same,"viability, T/C","second compound 0.0003 µM, first compound 0.316 µM",48.1%
same,"viability, T/C","second compound 0.0003 µM, first compound 1 µM",38.8%
same,"viability, T/C","second compound 0.0003 µM, first compound 3.16 µM",41.4%
same,"viability, T/C","second compound 0.0003 µM, first compound 10 µM",35.6%
same,"viability, T/C","second compound 0.000949 µM, first compound 0.0316 µM",2.74%
same,"viability, T/C","second compound 0.000949 µM, first compound 0.1 µM",3.63%
same,"viability, T/C","second compound 0.000949 µM, first compound 0.316 µM",3.61%
same,"viability, T/C","second compound 0.000949 µM, first compound 1 µM",3.83%
same,"viability, T/C","second compound 0.000949 µM, first compound 3.16 µM",3.94%
same,"viability, T/C","second compound 0.000949 µM, first compound 10 µM",4.03%
same,"viability, T/C","second compound 0.003 µM, first compound 0.0316 µM",0.31%
same,"viability, T/C","second compound 0.003 µM, first compound 0.1 µM",0.33%
same,"viability, T/C","second compound 0.003 µM, first compound 0.316 µM",0.32%
same,"viability, T/C","second compound 0.003 µM, first compound 1 µM",0.44%
same,"viability, T/C","second compound 0.003 µM, first compound 3.16 µM",0.34%
same,"viability, T/C","second compound 0.003 µM, first compound 10 µM",0.4%
[2H]c1nc(C)nc([2H])c1-c1cc(NC[C@@H](C)c2cccc3c(C(=O)NC)ccnc23)ncn1 + Cn1nnc2c(C(N)=O)ncn2c1=O,IC50,[1],> 10 µM
same,IC50,[2],> 10 µM
same,IC50,[3],> 10 µM
same,IC50,[4],> 10 µM
same,IC50,[5],> 10 µM
same,"viability, T/C",[6],94.5%
same,"viability, T/C",[7],104%
same,"viability, T/C",[8],98.4%
same,"viability, T/C",[9],99.5%
same,"viability, T/C",[10],97.3%
same,"viability, T/C",[11],98.5%
same,"viability, T/C",[12],108%
same,"viability, T/C",[13],100%
same,"viability, T/C",[14],99.7%
same,"viability, T/C",[15],102%
same,"viability, T/C",[16],99.9%
same,"viability, T/C",[17],101%
same,"viability, T/C",[18],110%
same,"viability, T/C",[19],109%
same,"viability, T/C",[20],98.2%
same,"viability, T/C",[21],110%
same,"viability, T/C",[22],95.5%
same,"viability, T/C",[23],94.8%
same,"viability, T/C",[24],104%
same,"viability, T/C",[25],99%
same,"viability, T/C",[26],113%
same,"viability, T/C",[27],107%
same,"viability, T/C",[28],110%
same,"viability, T/C",[29],95.2%
same,"viability, T/C",[30],93.3%
same,"viability, T/C",[31],105%
same,"viability, T/C",[32],98.3%
same,"viability, T/C",[33],94.7%
same,"viability, T/C",[34],84.7%
same,"viability, T/C",[35],87.6%
Cn1nnc2c(C(N)=O)ncn2c1=O,"viability, T/C",compound 1 µM,101% [middle of 10 runs]
same,"viability, T/C",compound 3.16 µM,101% [middle of 9 runs]
same,"viability, T/C",compound 10 µM,106% [middle of 10 runs]
same,"viability, T/C",compound 31.6 µM,106% [middle of 10 runs]
same,IC50,"compound alone, run of 10/17/2019",> 100 µM
